From US9247740B2, “Isoxazoline derivatives as insecticidal compounds” (Syngenta Participations AG, priority 2011, dated 2016)

Assays:
Assay type in all cases: in vivo
[1] = test system: Spodoptera littoralis (Egyptian Cotton Leafworm); experiment: Spodoptera littoralis leaf disc spray test; details: foliar, 72 h, 200 ppm spray on cotton leaf discs, mortality, feeding behavior, growth regulation 3 days after treatment
Description: This Example illustrates the insecticidal and acaricidal properties of compounds of formula (I). Tests were performed as follows:

[2] = test system: Heliothis virescens (Tobacco Budworm); experiment: Heliothis virescens egg test on artificial diet; details: 96 h, 200 ppm (concentration in well 18 ppm), eggs 0-24 h old on artificial diet, egg mortality, larval mortality, growth regulation after 4 days
Source text: (§1) This Example illustrates the insecticidal and acaricidal properties of compounds of formula (I).

[3] = test system: Plutella xylostella (Diamond Back Moth); experiment: Plutella xylostella larval test on artificial diet; details: 144 h, 200 ppm (concentration in well 18 ppm), L2 larvae, larval mortality and growth regulation after 6 days
Source text: as §1

[4] = test system: Diabrotica balteata (Corn Root Worm); experiment: Diabrotica balteata larval test on artificial diet; details: 120 h, 200 ppm (concentration in well 18 ppm), L2 larvae, larval mortality and growth regulation after 5 days
Source text: as §1

[5] = test system: Thrips tabaci (Onion Thrips); experiment: Thrips tabaci leaf disc spray test; details: foliar, 168 h, 200 ppm spray on sunflower leaf discs, mixed ages, mortality after 7 days
Source text: as §1

[6] = test system: Tetranychus urticae (Two-Spotted Spider Mite); experiment: Tetranychus urticae leaf disc spray test; details: foliar, 192 h, 200 ppm spray on bean leaf discs, mixed ages, egg, larval and adult mortality 8 days later
Source text: as §1

Measured: pest or weed control at 200 ppm

Cc1cc(C2=NOC(c3cc(Cl)cc(Cl)c3)(C(F)(F)F)C2)ccc1C(=O)NCC1CSC1 (stereo not shown) [Compound A130, 4-[5-(3,5-dichlorophenyl)-5-(trifluoromethyl)-4H-isoxazol-3-yl]-2-methyl-N-(thietan-3-ylmethyl)benzamide]
≥ 80%: all assays above

Cc1cc(C2=NOC(c3cc(Cl)cc(Cl)c3)(C(F)(F)F)C2)ccc1C(=O)NCC1CS(=O)(=O)C1 (stereo not shown) [Compound A132, 4-[5-(3,5-dichlorophenyl)-5-(trifluoromethyl)-4H-isoxazol-3-yl]-2-methyl-N-(1.1-dioxo-thietan-3-ylmethyl)benzamide]
≥ 80%: all assays above

O=C(NC1CSC1)c1ccc(C2=NOC(c3cc(Cl)cc(Cl)c3)(C(F)(F)F)C2)c([N+](=O)[O-])c1 (stereo not shown) [Compound B55, 4-[5-(3,5-dichlorophenyl)-5-trifluoromethyl-4H-isoxazol-3-yl]-3-nitro-N-(thietan-3-yl)benzamide]
≥ 80%: [1] | [2] | [3] | [4]

O=C(NC1CSC1)c1ccc(C2=NOC(c3cc(Cl)cc(Cl)c3)(C(F)(F)F)C2)cc1[N+](=O)[O-] (stereo not shown) [Compound B56, 4-[5-(3,5-dichlorophenyl)-5-trifluoromethyl-4H-isoxazol-3-yl]-2-nitro-N-(thietan-3-yl)benzamide]
≥ 80%: all assays above

Nc1cc(C2=NOC(c3cc(Cl)cc(Cl)c3)(C(F)(F)F)C2)ccc1C(=O)NC1CSC1 (stereo not shown) [Compound B57, 4-[5-(3,5-dichlorophenyl)-5-trifluoromethyl-4H-isoxazol-3-yl]-2-amino-N-(thietan-3-yl)benzamide]
not listed: [5]
≥ 80%: all other assays above

CCc1cc(C2=NOC(c3cc(Cl)cc(Cl)c3)(C(F)(F)F)C2)ccc1C(=O)NC1CSC1 (stereo not shown) [Compound B69, 4-[5-(3,5-dichlorophenyl)-5-trifluoromethyl-4H-isoxazol-3-yl]-2-ethyl-N-(thietan-3-yl)benzamide]
≥ 80%: all assays above

Cc1cc(C2=NOC(c3cc(C(C)(C)C)c[nH]3)(C(F)(F)F)C2)ccc1C(=O)NC1CSC1 (stereo not shown) [Compound C003, 4-[5-(4-tert-butyl-1H-pyrrol-2-yl)-5-(trifluoromethyl)-4H-isoxazol-3-yl]-2-methyl-N-(thietan-3-yl)benzamide]
≥ 80%: [2]

Cc1cc(C2=NOC(c3cn(CC(F)F)cc3C(C)(C)C)(C(F)(F)F)C2)ccc1C(=O)NC1CSC1 (stereo not shown) [Compound C005, 4-[5-[4-tert-butyl-1-(2,2-difluoroethyl)pyrrol-3-yl]-5-(trifluoromethyl)-4H-isoxazol-3-yl]-2-methyl-N-(thietan-3-yl)benzamide]
not listed: [5]
≥ 80%: all other assays above

Cc1cc(C2=NOC(c3cc(C(F)(F)F)n(C)c3)(C(F)(F)F)C2)ccc1C(=O)NC1CSC1 (stereo not shown) [Compound C006, 2-methyl-4-[5-[1-methyl-5-(trifluoromethyl)pyrrol-3-yl]-5-(trifluoromethyl)-4H-isoxazol-3-yl]-N-(thietan-3-yl)benzamide]
not listed: [2]
≥ 80%: all other assays above

Cc1cc(C2=NOC(c3cc(C(F)(F)F)n(CC(F)F)c3)(C(F)(F)F)C2)ccc1C(=O)NC1CSC1 (stereo not shown) [Compound C007, 4-[5-[1-(2,2-difluoroethyl)-5-(trifluoromethyl)pyrrol-3-yl]-5-(trifluoromethyl)-4H-isoxazol-3-yl]-2-methyl-N-(thietan-3-yl)benzamide]
≥ 80%: all assays above

Cc1cc(C2=NOC(c3c[nH]c(C(F)(F)F)c3)(C(F)(F)F)C2)ccc1C(=O)NC1CS(=O)(=O)C1 (stereo not shown) [Compound C008, N-(1,1-dioxothietan-3-yl)-2-methyl-4-[5-(trifluoromethyl)-5-[5-(trifluoromethyl)-1H-pyrrol-3-yl]-4H-isoxazol-3-yl]benzamide]
≥ 80%: [2] | [5] | [6]

Cc1cc(C2=NOC(c3c[nH]c(C(F)(F)F)c3)(C(F)(F)F)C2)ccc1C(=O)NC1C[S+]([O-])C1 (stereo not shown) [Compound C009, 2-methyl-N-(1-oxothietan-3-yl)-4-[5-(trifluoromethyl)-5-[5-(trifluoromethyl)-1H-pyrrol-3-yl]-4H-isoxazol-3-yl]benzamide]
≥ 80%: [3] | [5] | [6]

Cc1cc(C2=NOC(c3c[nH]c(C(F)(F)F)c3)(C(F)(F)F)C2)ccc1C(=O)NC1CSC1 (stereo not shown) [Compound C010, 2-methyl-N-(thietan-3-yl)-4-[5-(trifluoromethyl)-5-[5-(trifluoromethyl)-1H-pyrrol-3-yl]-4H-isoxazol-3-yl]benzamide]
≥ 80%: [5] | [6]

Cc1cc(C2=[N+]([O-])OC(c3cc(Cl)cc(Cl)c3)(C(F)(F)F)C2)ccc1C(=O)NC1CSC1 (stereo not shown) [Compound C011, 4-[5-(3,5-dichlorophenyl)-2-oxido-5-(trifluoromethyl)-4H-isoxazol-2-ium-3-yl]-2-methyl-N-(thietan-3-yl)benzamide]
≥ 80%: [1] | [2] | [4]

Cc1cc(C2=[N+]([O-])OC(c3cc(Cl)cc(Cl)c3)(C(F)(F)F)C2)ccc1C(=O)NC1CS(=O)(=O)C1 (stereo not shown) [Compound C012, 4-[5-(3,5-dichlorophenyl)-2-oxido-5-(trifluoromethyl)-4H-isoxazol-2-ium-3-yl]-N-(1,1-dioxothietan-3-yl)-2-methyl-benzamide]
not listed: [5]
≥ 80%: all other assays above

Cc1cc(C2=NOC(c3cc(Cl)cc(Cl)c3)(C(F)(F)F)C2)ccc1C(=O)N1CC2(CSC2)C1 (stereo not shown) [Compound C013, [4-[5-(3,5-dichlorophenyl)-5-(trifluoromethyl)-4H-isoxazol-3-yl]-2-methyl-phenyl]-(6-thia-2-azaspiro[3.3]heptan-2-yl)methanone]
≥ 80%: [3] | [4] | [5] | [6]

O=C(N[C@H]1C[S@@+]([O-])C1)c1ccc(C2=NO[C@@](c3cc(Cl)cc(Cl)c3)(C(F)(F)F)C2)cc1Cl [Compound C15, 2-chloro-4-[(5S)-5-(3,5-dichlorophenyl)-5-(trifluoromethyl)-4H-isoxazol-3-yl]-N-(1-oxidothietan-1-ium-3-yl)benzamide]
≥ 80%: all assays above

Cc1cc(C2=NO[C@@](c3cc(Cl)cc(Cl)c3)(C(F)(F)F)C2)cnc1C(=O)N[C@H]1C[S@@+]([O-])C1 [Compound C16, 5-[(5S)-5-(3,5-dichlorophenyl)-5-(trifluoromethyl)-4H-isoxazol-3-yl]-3-methyl-N-(1-oxidothietan-1-ium-3-yl)pyridine-2-carboxamide]
≥ 80%: all assays above

Cc1cc(C2=NO[C@@](c3cc(Cl)c(Cl)c(Cl)c3)(C(F)(F)F)C2)ccc1C(=O)N[C@H]1C[S@@+]([O-])C1 [Compound C17, 2-methyl-N-(1-oxothietan-3-yl)-4-[(5S)-5-(3,4,5-trichlorophenyl)-5-(trifluoromethyl)-4H-isoxazol-3-yl]benzamide]
≥ 80%: all assays above

Cc1cc(C2=NO[C@@](c3cc(Cl)c(F)c(Cl)c3)(C(F)(F)F)C2)ccc1C(=O)NC1CS(=O)(=O)C1 [Compound C18, 4-[(5S)-5-(3,5-dichloro-4-fluoro-phenyl)-5-(trifluoromethyl)-4H-isoxazol-3-yl]-N-(1,1-dioxothietan-3-yl)-2-methyl-benzamide]
≥ 80%: all assays above
